Here are results for one compound from patent publication US20100119458A1, “Compositions Containing Metal Oxide Particles and Their Use” (Spago Imaging AB, priority 2007, published 2010).

This assay in a line: MRI measurements of relaxation rates and relaxivities. In kind it is physicochemical. An excerpt:
where ρ=spin density, TE=echo time and TR=repetition time. Contrast agents that are paramagnetic are used to improve the resolution in the images. They have effects on both T1 and T2 but some agents have predominant effects on either T1 or T2. […] Gadolinium (III+) has a predominant effect on T1 and therefore has been used a positive contrast agent (increased MR signal). Iron (III+) has a predominant effect on T2 and has therefore been used as a negative contrast agent (decreased MR signal). The relaxation rate (1/Ti, i=1,2 for hydrogen) observed is proportional to the concentration C of a contrast agent used, i.e.
1/Ti(observed)=1/Ti(inherent)+riC
where 1/Ti (observed) is the relaxation rate in the presence of the contrast agent, 1/Ti (inherent) is the inherent tissue relaxation rate, and the proportionality constant ri is called the relaxivity constant for the contrast agent concerned. See Engström et al (Magn Reson Mater Phy 19 (2006) 180-186 and WO 2006031190 (Uvdal et al) and references cited therein.
15 MRI measurements: See Engström et al., Magn Reson Mater Phy, 19 (2006) 180-186.

`O=C([O-])CN(CCN(CC(=O)[O-])CC(=O)O)CCN(CC(=O)[O-])CC(=O)O.[Gd+3]` [Gd^3+-DTPA]: under “relaxation rate at 1 mM”, the “1/T1 (1 mM)” value was 0.005 ms^−1. For the same compound, the 1/T2 result (relaxation rate, stated in words) is recorded as “lower values”.
